This note sets out measurements from patent US20260184708A1, “PYRIDAZINONES AND METHODS OF USE THEREOF” (GFB (ABC), LLC, priority 2017, published 2026).

The structures appear in SMILES notation.

The target in one test is T1, TRPC5 (Homo sapiens, UniProt Q9UL62).
T1 construct: expressed in transfected cells; host or cells: HEK 293
T1 sequence (Q9UL62 1-973): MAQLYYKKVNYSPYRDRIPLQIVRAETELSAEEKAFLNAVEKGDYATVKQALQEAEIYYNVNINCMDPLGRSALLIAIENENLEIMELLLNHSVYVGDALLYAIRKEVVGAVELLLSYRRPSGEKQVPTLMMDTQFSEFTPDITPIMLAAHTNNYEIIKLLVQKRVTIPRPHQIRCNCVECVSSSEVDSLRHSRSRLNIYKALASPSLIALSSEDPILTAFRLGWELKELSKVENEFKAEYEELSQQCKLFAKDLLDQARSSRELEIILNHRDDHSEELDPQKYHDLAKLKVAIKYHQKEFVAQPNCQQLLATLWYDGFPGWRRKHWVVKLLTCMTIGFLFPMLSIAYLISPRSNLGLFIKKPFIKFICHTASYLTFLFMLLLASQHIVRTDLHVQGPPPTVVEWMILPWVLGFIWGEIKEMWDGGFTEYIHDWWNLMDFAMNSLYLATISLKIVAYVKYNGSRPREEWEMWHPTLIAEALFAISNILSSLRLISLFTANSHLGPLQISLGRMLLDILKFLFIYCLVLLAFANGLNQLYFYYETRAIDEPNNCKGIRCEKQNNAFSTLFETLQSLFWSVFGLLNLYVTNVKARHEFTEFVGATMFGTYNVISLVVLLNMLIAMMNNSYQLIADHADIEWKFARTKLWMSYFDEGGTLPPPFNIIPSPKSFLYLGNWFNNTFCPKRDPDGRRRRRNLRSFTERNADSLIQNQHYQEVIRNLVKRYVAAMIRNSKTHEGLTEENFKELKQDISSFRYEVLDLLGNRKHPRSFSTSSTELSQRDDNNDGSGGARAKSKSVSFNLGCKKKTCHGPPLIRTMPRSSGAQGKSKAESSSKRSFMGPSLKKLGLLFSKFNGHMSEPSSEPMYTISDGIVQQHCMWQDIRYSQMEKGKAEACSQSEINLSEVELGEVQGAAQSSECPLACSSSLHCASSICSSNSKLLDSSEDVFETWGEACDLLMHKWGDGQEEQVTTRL
Nature of the test: TRPC5 fluorescence assay, membrane potential dye, flexstation (FLEX). The format is cell-based. As to conditions: Table 6; HEK293 cells overexpressing TRPC5. The method, then:
HEK 293 cells expressing human TRPC5 cells were trypsinised, counted and seeded in black, clear-bottomed 96-well plates at a density of 50,000 cells per well and incubated overnight. Next day, the cells were loaded with membrane potential dye. Dye solution was made up according to the manufacturer's instructions in HEPES buffered Hank's balanced salt solution (HBSS). Dye solution (10 μL) was added to the wells and incubated at 37° C. for 1 hour. The test compounds and standard inhibitors were added to the wells and incubated at room temperature for 10 minutes. The plates were then placed in the flexstation and fluorescence monitored every 1.52 seconds. After 20 seconds, 10 μL of the appropriate standard agonist was added and the fluorescence monitored for 2 minutes at ex/emm: 530 nm/565 nm.
As for `N#Cc1c(N2CCc3c(ncn3Cc3cncc(F)c3)C2)cn[nH]c1=O`, the IC50 was in the range of 0.01 to 1000 nM.

For the compound `CC(c1ccccc1C(F)(F)F)n1nnc2c1CCN(c1cn[nH]c(=O)c1C#N)C2` (stereo not drawn), the IC50 fell in the range of 5000 to 10000 nM.

Regarding `O=c1[nH]ncc(N2CCc3c(cnn3Cc3cccnc3CC(F)(F)F)C2)c1Cl`, the IC50 fell in the range of 1000 to 5000 nM. The compound `O=c1[nH]ncc(N2CCc3c(nnn3Cc3ccc(F)cc3C(F)F)C2)c1Cl` returned an IC50 of 0.01 to 1000 nM. For the compound `C[C@H](c1ccccc1C(F)(F)F)n1nnc2c1CCN(c1cn[nH]c(=O)c1C#N)C2`, the IC50 is 0.01 to 1000 nM. Compound `O=c1[nH]ncc(N2CCc3ncn(-c4ccccc4C(F)(F)F)c3C2)c1Cl` [drawing 869] displayed an IC50 of 1000 to 5000 nM. As for `CCOc1cccc(Cn2cnc3c2CCN(c2cn[nH]c(=O)c2Cl)C3)n1`, the IC50 was 1000 to 5000 nM. Still for that read-out and setting: for `O=c1[nH]ncc(N2CCc3nn(-c4ccccc4OC(F)(F)F)cc3C2)c1Cl` the value was 1000 to 5000 nM; for `CC[C@H](c1cccnc1)n1nnc2c1CCN(c1cn[nH]c(=O)c1Cl)C2`, 1000 to 5000 nM. `C[C@H](c1ccccc1C(F)(F)F)n1nnc2c1CCN(c1cn[nH]c(=O)c1Cl)C2`: the IC50 was in the range of 0.01 to 1000 nM. On to `Cc1cccc(C)c1Cn1cnc2c1CCN(c1cn[nH]c(=O)c1Cl)C2`, for which the IC50 lay within 0.01 to 1000 nM.

Turning to `CCc1cccnc1Cn1cnc2c1CN(c1cn[nH]c(=O)c1Cl)CC2`, the IC50 was 5000 to 10000 nM. Still for that read-out and setting: in the case of `N#Cc1c(N2CCc3ncn(Cc4ccccc4C(F)F)c3C2)cn[nH]c1=O` it was 0.01 to 1000 nM; in that of `C[C@@H](c1ccccc1C(F)(F)F)n1nnc2c1CCN(c1cn[nH]c(=O)c1Cl)C2` [drawing 908], 0.01 to 1000 nM; in that of `O=c1[nH]ncc(N2CCc3c(cnn3Cc3ccc(F)cc3C(F)(F)F)C2)c1Cl` [drawing 907], 0.01 to 1000 nM. In turn, `O=c1[nH]ncc(N2CCc3nn(Cc4ccc(F)cc4C(F)(F)F)cc3C2)c1Cl` showed an IC50 of 0.01 to 1000 nM.

A further test has as its target T2, TRPC4 (Homo sapiens, UniProt Q9UBN4).
T2 construct: expressed in transfected cells; host or cells: HEK-TREx (HekTrex-293), cell line ICLN-1694, tetracycline-induced
T2 sequence (Q9UBN4 1-982 isoform Q9UBN4-5): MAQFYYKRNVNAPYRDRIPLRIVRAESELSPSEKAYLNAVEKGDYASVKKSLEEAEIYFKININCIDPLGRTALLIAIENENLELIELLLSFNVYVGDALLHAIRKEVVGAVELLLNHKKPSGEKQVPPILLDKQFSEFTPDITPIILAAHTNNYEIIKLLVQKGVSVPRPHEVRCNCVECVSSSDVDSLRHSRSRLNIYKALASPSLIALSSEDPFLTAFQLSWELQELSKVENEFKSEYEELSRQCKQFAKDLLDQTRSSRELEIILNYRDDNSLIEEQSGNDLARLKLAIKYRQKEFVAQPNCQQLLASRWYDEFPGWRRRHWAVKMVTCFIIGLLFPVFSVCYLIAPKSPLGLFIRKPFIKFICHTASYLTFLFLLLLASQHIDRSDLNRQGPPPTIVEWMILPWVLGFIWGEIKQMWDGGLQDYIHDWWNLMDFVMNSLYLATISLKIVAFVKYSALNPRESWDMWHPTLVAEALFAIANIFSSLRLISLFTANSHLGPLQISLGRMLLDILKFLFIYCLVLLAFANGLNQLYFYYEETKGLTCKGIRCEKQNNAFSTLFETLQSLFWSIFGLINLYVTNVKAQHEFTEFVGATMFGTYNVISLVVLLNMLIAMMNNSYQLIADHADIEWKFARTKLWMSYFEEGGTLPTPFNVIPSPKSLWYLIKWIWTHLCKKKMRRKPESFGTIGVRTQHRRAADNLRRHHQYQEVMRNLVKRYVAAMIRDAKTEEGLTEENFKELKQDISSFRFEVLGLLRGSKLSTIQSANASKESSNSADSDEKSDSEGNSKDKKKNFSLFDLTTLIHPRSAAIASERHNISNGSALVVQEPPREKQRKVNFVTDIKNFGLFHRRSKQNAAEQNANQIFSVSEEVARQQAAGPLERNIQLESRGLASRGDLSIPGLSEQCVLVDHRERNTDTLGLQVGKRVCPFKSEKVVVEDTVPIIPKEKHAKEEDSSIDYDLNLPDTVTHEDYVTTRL
Briefly: TRPC4 FLIPR Assay (HEK-TREx hTRPC4, Englerin A stimulation). In kind it is cell-based. Particulars: Table 8; HEK-TREx hTRPC4; read-out: TRPC4 FLIPR IC50. The method, then: FLIPR Assay Buffer (Earls Balanced Salt Solution (EBSS)) was prepared as follows:
10-point dose response curves were generated using the Echo-550 acoustic dispenser. Compound source plates were made by serially diluting compound stocks to create 10 mM, 1 mM, and 0.1 mM solutions in DMSO into Echo certified LDV plates. The Echo then serially spotted 100% DMSO stock solutions into source dose response plates to generate a 4-fold dilution scheme. 100% DMSO was added to the spotted dose response plates to bring the final volume to 5 μl. […] of the dose response stock plate was then spotted into pre-incubation and stimulation assay plates. […] of pre-incubation buffer and 100 μl of stimulation buffer was then added to the plates resulting in a final assay test concentration range of 30 μM to 0.0001 μM with a final DMSO concentration of 0.3%.
Experimental Methods: Cells expressing TRPC4 were plated onto 384 well, black pdl-coated microplates and maintained in TRPC4 growth media the day prior to use for experiments. TRPC4 expression was induced by the application of 1 μg/ml tetracycline at the time of plating. […] Cells were incubated at room temperature, protected from light, for 60-90 minutes. After the incubation period, the dye was removed and replaced with 10 μl of EBSS. Cell, pre-incubation and stimulation plates were loaded onto the FLIPR-II and the assay was initiated. The FLIPR measured a 10 second baseline and then added 10 μl of 2× compounds (or controls). Changes in fluorescence were monitored for an additional 5 minutes. After a 5 minute pre-incubation, 20 μl of 2× Englerin A (with 1× compound or controls) was added to the cell plate. The final Engerlin A stimulation concentration in the assay is 100 nM. After the Englerin A addition, changes in fluorescence were monitored for an additional 5 minutes.
Test Agent Effect: Test agent modulation of TRPC4 calcium response was determined as follows. After the Englerin A, fluorescence was monitored for a 5 minute period. The maximum relative fluorescence response (minus the control response of […] of the control inhibitor) was captured and exported from the FLIPR. Test agent effect was calculated as % inhibition using the following formula: % inhibition=((RFU TEST AGENT−Plate Average RFU REF INHIB)/(Plate Average RFU CONTROL−Plate Average RFU REF INHIB))×100
Turning to `CNC(=O)c1nn([C@H](C)c2ccccc2C(F)F)c2c1CN(c1cn[nH]c(=O)c1Cl)CC2` [drawing 982], the IC50 lay within 0.01 to 1000 nM. Same read-out and setting: for `CN1CCN(Cc2nn(Cc3ccccc3C(F)F)c3c2CN(c2cn[nH]c(=O)c2Cl)CC3)C(=O)C1` [drawing 975] the value was 0.01 to 1000 nM; for `C[C@@H](c1ccc(F)cc1C(F)(F)F)n1nnc2c1CCN(c1cn[nH]c(=O)c1Cl)C2`, 0.01 to 1000 nM.

Turning to `Cc1ccccc1CN1CCN(c2cn[nH]c(=O)c2Br)CC1=O`, the IC50 is 0.01 to 1000 nM.

In the case of `C[C@@H]1Cc2c(nnn2[C@@H](C)c2ccccc2C(F)(F)F)CN1c1cn[nH]c(=O)c1Cl` [drawing 968], the IC50 fell in the range of 0.01 to 1000 nM. Consider `Cc1cc(F)ccc1CN1CCN(c2cn[nH]c(=O)c2Cl)CC1` [drawing 1012], for which the IC50 lay in the range of 5000 to 10000 nM. For the compound `C[C@@H](c1cccnc1CC(F)F)n1nnc2c1CCN(c1cn[nH]c(=O)c1Cl)C2` [drawing 991], the IC50 is 0.01 to 1000 nM.

Take `O=c1[nH]ncc(N2CCc3c(Cc4ccc(F)cc4C(F)(F)F)n[nH]c3C2)c1Cl` [drawing 1005]: the IC50 lay within 0.01 to 1000 nM. Same read-out and setting: for `C[C@@H](c1ccccc1C(F)(F)F)N1CCN(c2cn[nH]c(=O)c2Cl)CC1=O` [drawing 987] the value was 0.01 to 1000 nM; for `O=c1[nH]ncc(N2CCc3c(ncn3Cc3ccc(F)cc3C(F)(F)F)C2)c1Cl` [drawing 942], 0.01 to 1000 nM. In the case of `CNC(=O)c1nc2c(n1Cc1ccccc1C(F)(F)F)CCN(c1cn[nH]c(=O)c1Cl)C2` [drawing 996], the IC50 was in the range of 0.01 to 1000 nM. In the case of `C[C@@H](c1ccc(F)cc1C(F)(F)F)N1CCN(c2cn[nH]c(=O)c2Cl)CC1=O` [drawing 993], the IC50 was in the range of 0.01 to 1000 nM. Turning to `C[C@@H]1CN(Cc2ccccc2C(F)(F)F)CCN1c1cn[nH]c(=O)c1Cl` [drawing 1016], the IC50 was in the range of 5000 to 10000 nM. Same read-out and setting: for `Cc1ccccc1[C@@H](C)N1CCN(c2cn[nH]c(=O)c2Cl)CC1=O` the value was 0.01 to 1000 nM; for `CC(c1ccc(F)cc1C(F)F)n1[nH]c(=O)c2c1CCN(c1cn[nH]c(=O)c1Cl)C2` (stereo not drawn), 0.01 to 1000 nM; for `C[C@@H]1Cc2c(nnn2[C@@H](C)c2ccc(F)cc2C(F)(F)F)CN1c1cn[nH]c(=O)c1Cl` [drawing 974], 0.01 to 1000 nM. Regarding `O=c1[nH]ncc(N2CCc3c(ncn3Cc3ccc(F)cc3Cl)C2)c1Cl` [drawing 998], the IC50 fell in the range of 0.01 to 1000 nM. Still for that read-out and setting: for `COCc1ccccc1Cn1cnc2c1CCN(c1cn[nH]c(=O)c1Cl)C2` [drawing 965] the value was 0.01 to 1000 nM; for `O=c1[nH]ncc(N2CCc3c(ncn3Cc3ccccc3)C2)c1Cl` [drawing 939], 0.01 to 1000 nM; for `C[C@@H](c1ccc(F)cc1C(F)F)n1nnc2c1CCN(c1cn[nH]c(=O)c1Cl)C2` [drawing 981], 0.01 to 1000 nM. On to `Cc1ccccc1CN1C[C@@H](C)N(c2cn[nH]c(=O)c2Cl)CC1=O`, for which the IC50 was 5000 to 10000 nM. For `Cc1ccccc1CN1CCN(c2cn[nH]c(=O)c2Cl)CC1=O` [drawing 1008], the IC50 is 0.01 to 1000 nM.

The same test, now with this note: Table 10; HEK-TREx hTRPC4; read-out: TRPC4-FLIPR ICSO.
As for `CN1CCN(Cc2nn(Cc3ccccc3C(F)F)c3c2CN(c2cn[nH]c(=O)c2Cl)CC3)C(=O)C1` [drawing 1091], the IC50 lay within 0.01 to 1000 nM.
